Test results as given in ChEMBL document CHEMBL3232722, “Synthesis and kinase inhibitory activity of new sulfonamide derivatives of pyrazolo[4,3-e][1,2,4]triazines” (Eur J Med Chem, 2014).
pIC50: −log10 of the molar value.

Legend:
[1] = (§1) In vitro antiproliferative activity against human BV173 cells assessed as decrease in cell viability after 24 hrs by MTT assay; type: functional, cell-based; conditions: BV-173, 24 h
MCF7 [2] = experiment: In vitro antiproliferative activity against human MCF7 cells assessed as decrease cell viability after 24 hrs by MTT assay; type: functional, cell-based; conditions: for pIC50: MCF7, 24 h
HL-60 = experiment: In vitro antiproliferative activity against human HL60 cells assessed as decrease in cell viability after 24 hrs by MTT assay; type: functional, cell-based; conditions: for pIC50: HL-60, 24 h, read-out: IC50
MCF7 [3] = experiment: Cytostatic activity against human MCF7 cells assessed as decrease in [3H]thymidine incorporation into DNA after 24 hrs by liquid scintillation counting analysis; type: functional, cell-based
CCRF-CEM = experiment: In vitro antiproliferative activity against human CCRF-CEM cells assessed as decrease in cell viability after 24 hrs by MTT assay; type: functional, cell-based
MDA-MB-231 [4] = experiment: Cytostatic activity against human MDA-MB-231 cells assessed as decrease in [3H]thymidine incorporation into DNA after 24 hrs by liquid scintillation counting analysis; type: functional, cell-based
MDA-MB-231 [5] = experiment: In vitro antiproliferative activity against human MDA-MB-231 cells assessed as decrease in cell vaibility after 24 hrs by MTT assay; type: functional, cell-based; conditions: for pIC50: MDA-MB-231, 24 h
K562 = experiment: In vitro antiproliferative activity against human K562 cells assessed as decrease in cell viability after 24 hrs by MTT assay; type: functional, cell-based; conditions: for pIC50: K562, 24 h
[6] = molecular target: T1, Tyrosine-protein kinase ABL1 (Homo sapiens, UniProt P00519); experiment: Inhibition of recombinant Abl kinase (unknown origin) expressed in Sf9 cells assessed as residual enzyme activity using GGEAIYAAPFKK as substrate at 10 uM in presence of [gamma33P]ATP
[7] = molecular target: Casein kinase II subunit alpha (Homo sapiens, UniProt P68400); experiment: Inhibition of CK2alpha1 (unknown origin) using casein as substrate in presence of [gamma33P]ATP
BV-173 = experiment: as §1; type: functional, cell-based
[8] = molecular target: T1, Tyrosine-protein kinase ABL1; experiment: Inhibition of recombinant Abl kinase (unknown origin) expressed in Sf9 cells using GGEAIYAAPFKK as substrate in presence of [gamma33P]ATP
[9] = molecular target: T1, Tyrosine-protein kinase ABL1; experiment: Inhibition of recombinant Abl kinase (unknown origin) expressed in Sf9 cells assessed as residual enzyme activity using GGEAIYAAPFKK as substrate at 50 uM in presence of [gamma33P]ATP
[10] = molecular target: T1, Tyrosine-protein kinase ABL1; experiment: Inhibition of recombinant Abl kinase (unknown origin) expressed in Sf9 cells assessed as residual enzyme activity using GGEAIYAAPFKK as substrate at 25 uM in presence of [gamma33P]ATP
[11] = molecular target: Cyclin-dependent kinase 2/cyclin E1 (Homo sapiens, UniProt P24941); experiment: Inhibition of CDK2/cyclin E (unknown origin) expressed in Sf9 cells using histone H1 as substrate in presence of [gamma33P]ATP

T1 sequence (P00519 whole entry): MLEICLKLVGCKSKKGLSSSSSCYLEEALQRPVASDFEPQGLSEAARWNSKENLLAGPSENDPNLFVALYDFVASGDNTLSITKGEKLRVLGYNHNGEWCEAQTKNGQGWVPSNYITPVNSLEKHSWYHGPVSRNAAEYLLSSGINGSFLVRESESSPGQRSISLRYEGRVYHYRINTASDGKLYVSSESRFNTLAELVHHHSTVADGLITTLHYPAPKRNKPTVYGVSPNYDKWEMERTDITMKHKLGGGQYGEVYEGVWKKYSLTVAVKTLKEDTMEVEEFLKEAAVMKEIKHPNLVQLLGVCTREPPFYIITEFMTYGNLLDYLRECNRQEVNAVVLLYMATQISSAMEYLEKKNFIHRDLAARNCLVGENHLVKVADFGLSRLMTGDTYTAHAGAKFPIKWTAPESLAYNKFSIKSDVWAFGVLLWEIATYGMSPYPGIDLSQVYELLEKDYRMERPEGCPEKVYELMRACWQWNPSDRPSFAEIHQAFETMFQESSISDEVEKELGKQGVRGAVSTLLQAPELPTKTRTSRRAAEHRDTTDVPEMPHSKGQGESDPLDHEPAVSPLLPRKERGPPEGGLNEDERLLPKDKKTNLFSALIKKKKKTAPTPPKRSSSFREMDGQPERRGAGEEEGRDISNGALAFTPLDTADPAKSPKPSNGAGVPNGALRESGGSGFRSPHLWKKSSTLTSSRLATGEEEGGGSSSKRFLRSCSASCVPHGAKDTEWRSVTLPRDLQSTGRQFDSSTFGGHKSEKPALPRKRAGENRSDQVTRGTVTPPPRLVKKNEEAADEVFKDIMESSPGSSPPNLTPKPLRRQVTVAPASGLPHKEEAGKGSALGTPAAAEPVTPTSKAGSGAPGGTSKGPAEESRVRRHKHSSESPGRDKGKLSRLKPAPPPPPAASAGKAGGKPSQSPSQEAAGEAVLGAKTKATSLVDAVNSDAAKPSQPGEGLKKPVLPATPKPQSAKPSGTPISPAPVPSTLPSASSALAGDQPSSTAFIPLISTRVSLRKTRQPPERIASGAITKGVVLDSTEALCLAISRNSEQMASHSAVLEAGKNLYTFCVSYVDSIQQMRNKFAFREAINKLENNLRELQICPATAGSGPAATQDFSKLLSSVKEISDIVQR
Chain of Casein kinase II subunit alpha (P68400 whole entry): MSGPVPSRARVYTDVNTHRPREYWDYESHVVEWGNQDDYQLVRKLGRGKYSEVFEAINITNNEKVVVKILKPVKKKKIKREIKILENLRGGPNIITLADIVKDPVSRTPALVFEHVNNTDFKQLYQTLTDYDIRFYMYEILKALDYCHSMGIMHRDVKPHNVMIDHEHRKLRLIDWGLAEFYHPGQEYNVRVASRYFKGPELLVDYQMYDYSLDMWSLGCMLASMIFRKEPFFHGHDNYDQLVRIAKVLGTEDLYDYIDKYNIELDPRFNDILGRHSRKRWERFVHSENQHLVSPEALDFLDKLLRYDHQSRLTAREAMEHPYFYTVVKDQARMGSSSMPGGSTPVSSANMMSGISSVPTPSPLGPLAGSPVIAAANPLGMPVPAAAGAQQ

| pIC50 (MCF7 [2]) | pIC50 (HL-60) | pIC50 (MCF7 [3]) | pIC50 (CCRF-CEM) | pIC50 (MDA-MB-231 [4]) | pIC50 (MDA-MB-231 [5]) | pIC50 (K562) | Activity [6] | pIC50 [7] | pIC50 [8] | pIC50 [11] | SMILES | pIC50 [1] | inhibition (BV-173) | inhibition (MCF7 [2]) | inhibition (HL-60) | inhibition (MCF7 [3]) | inhibition (CCRF-CEM) | inhibition (MDA-MB-231 [4]) | inhibition (MDA-MB-231 [5]) | inhibition (K562) | also measured |
| --- | --- | --- | --- | --- | --- | --- | --- | --- | --- | --- | --- | --- | --- | --- | --- | --- | --- | --- | --- | --- | --- |
| 3.99 | 4.31 | 4.06 | 4.44 | 4.10 | 4.00 | 4.18 | 60% | < 4.30 | < 4.30 | < 4.30 | Cc1nn(C)c2nnc(Nc3ccc(S(=O)(=O)N4CCN(C)CC4)cc3)nc12 | 4.40 | Dose-dependent effect | Dose-dependent effect | Dose-dependent effect | Dose-dependent effect | Dose-dependent effect | Dose-dependent effect | Dose-dependent effect | Dose-dependent effect | Activity [9]: 51%; Activity [10]: 55% |
| 3.84 | 4.39 | 4.00 | 4.19 | 3.92 | 3.90 | 4.02 |  | < 4.30 | 4.70 | < 4.30 | Cc1nn(C)c2nnc(Nc3ccc(S(=O)(=O)NCCN4CCOCC4)cc3)nc12 | 4.41 | Dose-dependent effect | Dose-dependent effect | Dose-dependent effect | Dose-dependent effect | Dose-dependent effect | Dose-dependent effect | Dose-dependent effect | Dose-dependent effect |  |
| < 3.70 | 4.38 | < 3.70 | 4.31 | < 3.70 | < 3.70 | 4.00 |  | < 4.30 | 4.41 | < 4.30 | Cc1nn(C)c2nnc(Nc3ccc(S(=O)(=O)NCCO)cc3)nc12 | 4.39 | Dose-dependent effect | Dose-dependent effect | Dose-dependent effect | Dose-dependent effect | Dose-dependent effect | Dose-dependent effect | Dose-dependent effect | Dose-dependent effect |  |
| 3.70 | 4.62 | 3.82 | 4.52 | 3.87 | 3.85 | 4.01 | 100% | < 4.60 | < 4.60 | < 4.60 | Cc1nn(C)c2nnc(Nc3ccc(S(=O)(=O)N4CCCCC4)cc3)nc12 | 4.44 | Dose-dependent effect | Dose-dependent effect | Dose-dependent effect | Dose-dependent effect | Dose-dependent effect | Dose-dependent effect | Dose-dependent effect | Dose-dependent effect | Activity [10]: 98% |
|  |  |  |  |  |  |  |  |  |  | 5.74 | O=C(O)c1ccc2c(c1)nc(Nc1cccc(Cl)c1)c1ccncc12 [SILMITASERTIB] |  |  |  |  |  |  |  |  |  |  |
| < 3.70 | 4.41 | < 3.70 | 4.16 | < 3.70 | < 3.70 | 4.05 | 88% | < 4.60 | < 4.60 | < 4.60 | Cc1nn(C)c2nnc(Nc3ccc(S(=O)(=O)N4CCOCC4)cc3)nc12 | 4.24 | Dose-dependent effect | Dose-dependent effect | Dose-dependent effect | Dose-dependent effect | Dose-dependent effect | Dose-dependent effect | Dose-dependent effect | Dose-dependent effect | Activity [10]: 80% |
| < 3.70 | 4.40 | < 3.70 | 4.27 | < 3.70 | < 3.70 | < 3.70 | 80% | < 4.30 | < 4.30 | < 4.30 | Cc1nn(C)c2nnc(Nc3ccc(S(=O)(=O)NC(CO)C(C)C)cc3)nc12 (configuration not stated) | 4.24 | Dose-dependent effect | Dose-dependent effect | Dose-dependent effect | Dose-dependent effect | Dose-dependent effect | Dose-dependent effect | Dose-dependent effect | Dose-dependent effect |  |
| < 3.70 | 4.25 | < 3.70 | 4.52 | < 3.70 | < 3.70 | 3.99 | 100% | < 4.30 | < 4.30 | < 4.30 | Cc1nn(C)c2nnc(Nc3ccc(S(=O)(=O)N4CCCC4)cc3)nc12 | 4.33 | Dose-dependent effect | Dose-dependent effect | Dose-dependent effect | Dose-dependent effect | Dose-dependent effect | Dose-dependent effect | Dose-dependent effect | Dose-dependent effect | Activity [9]: 90%; Activity [10]: 100% |
| 3.70 | 4.36 | 3.89 | 4.24 | 3.89 | 3.85 | 4.00 | 81% | < 4.30 | 4.47 | < 4.30 | Cc1nn(C)c2nnc(Nc3ccc(S(=O)(=O)NCC(O)CO)cc3)nc12 (configuration not stated) | 4.38 | Dose-dependent effect | Dose-dependent effect | Dose-dependent effect | Dose-dependent effect | Dose-dependent effect | Dose-dependent effect | Dose-dependent effect | Dose-dependent effect | Activity [9]: 45%; Activity [10]: 56% |
| < 3.70 | 4.24 | < 3.70 | 4.30 | < 3.70 | < 3.70 | 3.97 | 95% | < 4.30 | 4.48 | < 4.30 | Cc1nn(C)c2nnc(Nc3ccc(S(N)(=O)=O)cc3)nc12 | 4.35 | Dose-dependent effect | Dose-dependent effect | Dose-dependent effect | Dose-dependent effect | Dose-dependent effect | Dose-dependent effect | Dose-dependent effect | Dose-dependent effect | Activity [9]: 33%; Activity [10]: 63% |

| SMILES | pIC50 (MCF7 [2]) | pIC50 (HL-60) | pIC50 (MCF7 [3]) | pIC50 (CCRF-CEM) | pIC50 (MDA-MB-231 [4]) | pIC50 (MDA-MB-231 [5]) | pIC50 (K562) | Activity [6] | pIC50 [7] | pIC50 [8] | pIC50 [11] | pIC50 [1] | inhibition (BV-173) | inhibition (MCF7 [2]) | inhibition (HL-60) | inhibition (MCF7 [3]) | inhibition (CCRF-CEM) | inhibition (MDA-MB-231 [4]) | inhibition (MDA-MB-231 [5]) | inhibition (K562) | also measured |
| --- | --- | --- | --- | --- | --- | --- | --- | --- | --- | --- | --- | --- | --- | --- | --- | --- | --- | --- | --- | --- | --- |
| O=C(O)CCCc1ccc(N(CCCl)CCCl)cc1 [CHLORAMBUCIL] | 4.01 | 4.42 | 4.25 | 4.68 | 4.31 | 4.03 | 4.08 |  |  |  |  | 4.47 |  |  |  |  |  |  |  |  |  |
